Patent publication US20070282004A1, “Use of a Cyclopentenone Prostaglandin for Delaying for the Onset and/or Preventing the Continuation of Labour” (Imperial College Innovations Limited, priority 2003, published 2007)

Tests used:
PPAR-γ = biological target: T1, PPAR-γ (Homo sapiens, UniProt P37231); details: covalent modification of Cys285 (Leesnitzer et al., 2002); cited from earlier work
T1 sequence (P37231 1-505): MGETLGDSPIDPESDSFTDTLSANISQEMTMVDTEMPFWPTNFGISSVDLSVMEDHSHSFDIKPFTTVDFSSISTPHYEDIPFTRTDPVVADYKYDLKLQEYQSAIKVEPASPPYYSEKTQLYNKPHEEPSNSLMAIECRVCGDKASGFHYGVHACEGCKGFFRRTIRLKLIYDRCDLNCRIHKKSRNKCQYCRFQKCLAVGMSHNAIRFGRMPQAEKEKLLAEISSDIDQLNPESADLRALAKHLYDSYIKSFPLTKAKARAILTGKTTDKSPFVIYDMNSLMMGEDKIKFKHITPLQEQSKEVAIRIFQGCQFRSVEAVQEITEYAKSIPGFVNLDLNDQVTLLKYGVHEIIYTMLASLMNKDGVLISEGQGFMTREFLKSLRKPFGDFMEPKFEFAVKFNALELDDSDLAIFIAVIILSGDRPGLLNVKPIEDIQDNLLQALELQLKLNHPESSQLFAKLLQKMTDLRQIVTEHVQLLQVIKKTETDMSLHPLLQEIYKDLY

NF-κB [1] = biological target: T2, NF-κB (Homo sapiens, UniProt P19838+Q04206); assay: EMSA of NF-κB DNA binding in nuclear extracts of treated amnion cells; assay type: cell-based; details: amnion cells treated with 15d-PGJ2 in the presence of the PPAR-γ inhibitor
T2 construct: nuclear protein extracts from myometrial cells; endogenous in cells; host or cells: primary human myometrial cells (term, passage 1-4)
Protocol: (§1) Placentae were obtained from patients at term either at elective Caesarean section prior to labour (L−) or following spontaneous labour onset and vaginal delivery (L+). Amnion cells were prepared as described in Bennett et al., (1989). Briefly, the amnion was separated from the placenta, washed 3× in PBS, cut into strips, and incubated in 0.5 mM EDTA in PBS for 15 min. The strips were washed in PBS 2× and digested with 2.5 mg/ml dispase in serum-free DMEM for 35 min at 37° C. The amnion was then shaken vigorously in DMEM, 10% FCS to dissociate the cells, the remaining strips discarded, and the cell suspension pelleted at 175 g for 10 min and cultured in DMEM, 10% FCS (Sigma), 1% L-glutamine, 1% penicillin-streptomycin.
(§2) Nuclear and cytosolic protein extracts were obtained from cultured amnion cells as described by Schreiber et al (1989). For nuclear/cytosolic fractionation, confluent cell monolayers were scraped and lysed using a buffer containing 10 mM HEPES, 10 mM KCl, 0.1 mM EDTA, 0.1 mM EGTA, 2 mM DTT, 1% (v/v) NP-40 and complete protease inhibitor tablets (CPIs, Roche), diluted to manufacturer's instructions. Cell lysates were incubated on ice for 10 min and NP-40 added to a final concentration of 1% (v/v). Lysates were vortexed for 10 secs and centrifuged for 30 secs at 4° C., 12000 g. The supernatants were retained as the cytosolic protein extracts. The pellets were resuspended in buffer containing 10 mM HEPES, 10 mM KCl, 0.1 mM EDTA, 0.1 mM EGTA, 2 mM DTT, 400 mM NaCl, 1% NP-40 (v/v) and CPIs. Samples were shaken vigorously for 15 min in an ice bath. The nuclear protein extracts were obtained in the supernatant following a 5 min centrifugation at 4° C., 12000 g.
(§3) Sense and antisense strands (175 nmole/ml each) were incubated in annealing buffer (10 mM Tris-HCl pH7.5, 100 mM NaCl, 1 mM EDTA) for 10 min at 65° C., and allowed to cool at room temperature for 2 h. 3.5 pmole double-stranded oligonucleotides were end-labelled with 0.37 MBq ^32P(γATP) by incubating for 30 min at 37° C. with T4 polynucleotide kinase. Labelled oligonucleotides were recovered by centrifugation at 3000 rpm for 2 min through MicroSpin G-25 or G-50 sephadex columns (Amersham Biosciences).
(§4) 3-5 μg protein extracts were incubated on ice for 1 h with non-radiolabelled non-specific oligonucleotide (poly(dI-dC) or Oct-1) in a binding buffer (20% (v/V) glycerol, 5 mM MgCl2, 2 mM EDTA, 50 mM Tris-HCl pH7.5, 250 mM NaCl, 2 mM DTT), followed by a 45 min incubation with 0.035 pmole ^32P(γ(ATP)-end labelled oligonucleotide probes:
(§5) Oct-1 or SP-1 consensus sequences were used as a controls for a NF-κB-specific effect. The resulting protein/DNA complexes were separated in a 4% acrylamide gel, the gel dried under vacuum at 80° C. and exposed to X-ray film. For supershift analysis, samples were incubated with 2 μg antibodies for 30 min on ice prior to incubation with oligonucleotides. Non-radio-labelled oligonucleotides were used at 100-fold molar excess for specific and non-specific competition for DNA binding. Reagents for EMSA were obtained from Promega Life Sciences, Delta House, Chilworth Research Centre, Southampton SO16 7NS, United Kingdom.

NF-κB [2] = biological target: T2, NF-κB; assay: EMSA of NF-κB DNA binding in nuclear extracts of treated myometrial cells; assay type: cell-based; details: myometrial cells
Protocol: (§6) Myometrial tissue was collected at term from the upper margin of uterine incision at the time of lower segment caesarean section either prior to the onset of labour (L−) or […] (L+). L+ samples were collected by Dr Mark Johnson and Dr S Soorrana at Chelsea & Westminster Hospital. Myometrial tissue was dissected, rinsed in PBS, and digested in serum-free DMEM containing 15 mg/ml collagenase 1A (Sigma), 15 mg/ml collagenase X, and 50 mg/ml bovine serum albumin for 45 min at 37° C. The cell suspension was filtered through a cell strainer, centrifuged at 400 g for 5 min, and the pellet re-suspended and plated out in DMEM, 10% FCS (Helena BioScience), 1% L-glutainine, 1% penicillin-streptomycin. Cells were used between passage numbers 1-4.
as §2, §3, §4, §5

NF-κB [3] = assay: NF-κB-dependent luciferase reporter (κB.BG.Luc) in amnion cells; assay type: cell-based, human; details: L− or L+ amnion cells, treated 2 h, IL-1β 1 ng/ml 6 h
Protocol: . Values are normalised for b-gal reporter activity.
as §1
pGL3.6κB.BG.luc was the reporter construct used to assess NF-κB-mediated transcription, while the mutant pGL3.6κBmut.luc and empty pGL3.BG.luc were used as controls (Schwarzer et al., 1998).
pGL3.6κB.BG.luc: a NF-κB-dependent reporter construct with 6 copies of the NF-κB binding site. It contains two tandem repeats of the sequence 5′-GGG GAC TTT C CC TGGGGACTTTCCCTGGGGACTTTCCC-3′, which contains three copies of the decameric NF-κB binding site (underlined) upstream of a minimal β-globin promoter driving a luciferase gene.
Cells were co-transfected with the renilla vector pRL-CMV or β-galactosidase vector pCH110 as internal controls for transfection efficiencies.

PPARα = details: GAL4 chimera transfection system (Kehrer et al., 2001); cited from earlier work
COX-2 = assay: Western immunoblot of IL-1β-induced COX-2 protein in myometrial cells; assay type: cell-based, human; details: treated 2 h, IL-1β 6 h
Protocol: as §6
Nuclear and cytosolic protein extracts were obtained from cultured amnion cells as described by Schreiber et al (1989). […]
Protein samples (20-70 μg) were mixed with Laemmli sample buffer (1:1) containing β-mercaptoethanol (5%), and boiled for 5 min. […] The blots were then incubated with HRP-conjugated secondary antibody (diluted 1:2000 in 1% non-fat milk in PBS-T buffer) for 1 h and washed three times (10 min each) in PBS-T. Signal detection was achieved using enhanced chemi-luminescence (ECL plus system, Amersham Pharmacia Biotech) according to manufacturer's instructions. […]

T2 sequence (Q04206 whole entry): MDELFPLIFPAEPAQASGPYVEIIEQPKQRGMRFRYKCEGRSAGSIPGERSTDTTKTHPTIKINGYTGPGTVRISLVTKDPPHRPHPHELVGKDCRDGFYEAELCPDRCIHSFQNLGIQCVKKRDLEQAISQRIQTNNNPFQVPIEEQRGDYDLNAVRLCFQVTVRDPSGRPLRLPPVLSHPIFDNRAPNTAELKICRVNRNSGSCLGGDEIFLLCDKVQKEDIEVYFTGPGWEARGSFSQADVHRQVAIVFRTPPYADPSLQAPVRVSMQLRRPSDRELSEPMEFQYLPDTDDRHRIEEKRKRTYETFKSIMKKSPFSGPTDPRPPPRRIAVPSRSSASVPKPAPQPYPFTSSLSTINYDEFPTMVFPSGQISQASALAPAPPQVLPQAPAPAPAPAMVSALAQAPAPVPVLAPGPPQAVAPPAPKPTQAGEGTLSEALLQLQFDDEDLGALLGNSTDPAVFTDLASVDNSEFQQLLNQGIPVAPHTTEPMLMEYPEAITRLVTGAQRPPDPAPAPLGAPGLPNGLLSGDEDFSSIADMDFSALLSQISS
T2 sequence (P19838 1-433 limits assumed): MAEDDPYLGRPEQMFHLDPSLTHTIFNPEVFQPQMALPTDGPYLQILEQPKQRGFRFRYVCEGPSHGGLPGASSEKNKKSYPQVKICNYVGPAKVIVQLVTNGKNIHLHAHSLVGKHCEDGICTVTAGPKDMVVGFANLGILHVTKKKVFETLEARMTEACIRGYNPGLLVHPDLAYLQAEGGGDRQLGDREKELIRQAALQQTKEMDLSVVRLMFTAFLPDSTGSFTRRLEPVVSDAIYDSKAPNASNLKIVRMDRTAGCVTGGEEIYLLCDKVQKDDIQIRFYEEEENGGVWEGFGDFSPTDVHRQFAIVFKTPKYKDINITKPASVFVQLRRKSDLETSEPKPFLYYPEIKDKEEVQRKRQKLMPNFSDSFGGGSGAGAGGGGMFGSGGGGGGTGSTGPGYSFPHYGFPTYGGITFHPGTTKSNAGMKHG

| Structure (SMILES) | Binding to PPAR-γ (PPAR-γ) | Alleviation of 15d-PGJ2 inhibition of NF-κB DNA binding (NF-κB [1]) | Alleviation of 15d-PGJ2 inhibition of NF-κB DNA binding (NF-κB [1]; listed as GW9662) | NF-κB DNA binding (EMSA) (NF-κB [2]; 10-100 μM concentrations) | IL-1β-induced NF-κB DNA binding (EMSA) (NF-κB [2]; treated 2 h, then IL-1β 15 min) | IL-1β-induced NF-κB transcriptional activity (κB.BG.Luc reporter) (NF-κB [3]) | Doses that transactivate PPARα (PPARα) [µM] | IL-1β-induced COX-2 expression (COX-2) |
| --- | --- | --- | --- | --- | --- | --- | --- | --- |
| O=C(Nc1ccccc1)c1cc([N+](=O)[O-])ccc1Cl [GW-9662, reference compound] | binds irreversibly | failed to alleviate | does not alleviate |  |  |  |  |  |
| Cc1cccc(Nc2cc(Cl)nc(SCC(=O)O)n2)c1C [WY-14643, reference compound] |  |  |  | had no effect | do not inhibit | did not | 5 to 25 | not |
